From US6005103A, “Pyrone derivatives as protease inhibitors and antiviral agents” (Warner-Lambert Company, priority 1994, dated 1999)
In brackets after ≈: the same amount, converted by molar mass.

Columns and labels:
[1] = test system: Streptococcus pyogenes C203; experiment: Antibacterial activity, microtitration dilution method; type: cell-based; settings: read-out: minimum inhibitory concentration (MIC)
Text: (§1) The compounds of the invention display antibacterial activity when tested by the microtitration dilution method as described in Heifetz, et al., Antimicr. Agents. & Chemoth. 6: 124 (1974) which is incorporated herein by reference.
(§2) By use of the above referenced method, the following minimum inhibitory concentration values (MICs in μg/mL) were obtained for representative compounds of the invention vs. clinically relevant gram positive pathogens which have become highly resistant to conventional therapy in recent years.

[2] = test system: Staphylococcus aureus UC-76; experiment: as above; type: cell-based; settings: UC76, read-out: minimum inhibitory concentration (MIC)
Text: as §1, §2

[3] = test system: Streptococcus pneumonia 5V-1; experiment: as above; type: cell-based; settings: Streptococcus pneumoniae, 5V1, read-out: minimum inhibitory concentration (MIC)
Text: as §1, §2

[4] = test system: Enterococcus foecalis MGH2; experiment: as above; type: cell-based; settings: read-out: minimum inhibitory concentration (MIC)
Text: as §1, §2

[5] = test system: Staphylococcus aureus H228; experiment: as above; type: cell-based; settings: read-out: minimum inhibitory concentration (MIC)
Text: as §1, §2

HIV = settings: cell-free and cell-mediated HIV infection; cited from earlier work

| Structure (SMILES) | MIC [1] | MIC [2] | MIC [3] | MIC [4] | MIC [5] | HIV infection inhibition (in words) (HIV) |
| --- | --- | --- | --- | --- | --- | --- |
| CC(C)CC(SC1CCCCC1)c1c(O)cc(-c2ccccc2)oc1=O (racemic) [Example 142, 3-[l-(Cyclohexylthio)-3-methylbutyl]-4-hydroxy-6-phenyl-2H-pyran-2-one (±)] | 25 µg/mL (≈ 67.1 µM) | 12.5 µg/mL (≈ 33.6 µM) | 25 µg/mL (≈ 67.1 µM) | 25 µg/mL (≈ 67.1 µM) | 12.5 µg/mL (≈ 33.6 µM) |  |
| CC(=O)CC(c1ccccc1)c1c(O)c2ccccc2oc1=O (stereo not drawn) [Warfarin, 3-(α-acetonylbenzyl)-4-hydroxycoumarin] |  |  |  |  |  | inhibiting cell-free and cell-mediated HIV infection |
